Results published in the supplement of paper PMC10920090.

Columns and labels:
Conditions in all cases: 72 h
MDA-MB-231 [1] = experiment: drug sensitivity score (DSS), cell viability CellTiter-Glo; higher = more sensitive; extreme values may be limits of the assay
BT-474 [2] = experiment: as above
Method: (§1)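 Targeted FIMM drug screen of 23 compounds at 5 concentrations over a 10,000-fold range in 384-well plates, 1250 cells/well, 72 h at 37 °C. Read-outs were CellTiter-Glo viability and CellTox Green cytotoxicity, normalised to DMSO and benzethonium chloride controls and summarised as drug sensitivity score (DSS). Cells stably transduced with shScramble or one of two shPPFIA1 constructs (shPPFIA1_1 TRCN0000002969, shPPFIA1_2 TRCN0000342514).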

UT-SCC-24A [3] = experiment: as above
Method: as §1

BT-474 [4] = experiment: drug sensitivity score (DSS), cytotoxicity CellTox Green; higher = more cytotoxic; extreme values may be limits of the assay
Method: as §1

UT-SCC-24A [5] = experiment: as above
Method: as §1

MDA-MB-231 [6] = experiment: as above

SMILES | drug sensitivity score (MDA-MB-231 [1]; shRNA: shPPFIA1_1) [DSS] | drug sensitivity score (MDA-MB-231 [1]; shRNA: shScramble) [DSS] | drug sensitivity score (MDA-MB-231 [6]; shRNA: shPPFIA1_1) [DSS] | drug sensitivity score (MDA-MB-231 [6]; shRNA: shScramble) [DSS] | further results
CCOc1ccn(-c2ccc(F)cc2)c(=O)c1C(=O)Nc1ccc(Oc2ccnc(N)c2Cl)c(F)c1 | 0 | 21 | 0 | 0.9 | drug sensitivity score (BT-474 [2]; shRNA: shPPFIA1_1): 0 DSS; drug sensitivity score (BT-474 [2]; shRNA: shPPFIA1_2): 0 DSS; drug sensitivity score (BT-474 [2]; shRNA: shScramble): 0 DSS; drug sensitivity score (UT-SCC-24A [3]; shRNA: shPPFIA1_1): 0 DSS; drug sensitivity score (UT-SCC-24A [3]; shRNA: shPPFIA1_2): 0 DSS; drug sensitivity score (UT-SCC-24A [3]; shRNA: shScramble): 0 DSS; drug sensitivity score (BT-474 [4]; shRNA: shPPFIA1_1): 0 DSS; drug sensitivity score (BT-474 [4]; shRNA: shPPFIA1_2): 0 DSS; drug sensitivity score (BT-474 [4]; shRNA: shScramble): 0 DSS; drug sensitivity score (UT-SCC-24A [5]; shRNA: shPPFIA1_1): 0 DSS; drug sensitivity score (UT-SCC-24A [5]; shRNA: shPPFIA1_2): 0 DSS; drug sensitivity score (UT-SCC-24A [5]; shRNA: shScramble): 0 DSS
O=C(Nc1ccc2[nH]nc(-c3ccncc3)c2c1)[C@@H]1CCN(CC(=O)N2CCN(c3ccc(-c4ncccn4)cc3)CC2)C1 | 2.1 | 10.8 | 6 | 10.9 | drug sensitivity score (BT-474 [2]; shRNA: shPPFIA1_1): 0 DSS; drug sensitivity score (BT-474 [2]; shRNA: shPPFIA1_2): 0 DSS; drug sensitivity score (BT-474 [2]; shRNA: shScramble): 0 DSS; drug sensitivity score (UT-SCC-24A [3]; shRNA: shPPFIA1_1): 21.3 DSS; drug sensitivity score (UT-SCC-24A [3]; shRNA: shPPFIA1_2): 20.5 DSS; drug sensitivity score (UT-SCC-24A [3]; shRNA: shScramble): 17.3 DSS; drug sensitivity score (BT-474 [4]; shRNA: shPPFIA1_1): 0 DSS; drug sensitivity score (BT-474 [4]; shRNA: shPPFIA1_2): 0.2 DSS; drug sensitivity score (BT-474 [4]; shRNA: shScramble): 0 DSS; drug sensitivity score (UT-SCC-24A [5]; shRNA: shPPFIA1_1): 21.7 DSS; drug sensitivity score (UT-SCC-24A [5]; shRNA: shPPFIA1_2): 21.1 DSS; drug sensitivity score (UT-SCC-24A [5]; shRNA: shScramble): 11.6 DSS
CN[C@@H](C)C(=O)N[C@H](C(=O)N1CCC[C@H]1c1nc(C(=O)c2ccc(F)cc2)cs1)C1CCCCC1 [NVP-LCL161] | – | – | – | – | drug sensitivity score (BT-474 [2]; shRNA: shPPFIA1_1): 1 DSS; drug sensitivity score (BT-474 [2]; shRNA: shPPFIA1_2): 1.4 DSS; drug sensitivity score (BT-474 [2]; shRNA: shScramble): 0.7 DSS; drug sensitivity score (UT-SCC-24A [3]; shRNA: shPPFIA1_1): 4.5 DSS; drug sensitivity score (UT-SCC-24A [3]; shRNA: shPPFIA1_2): 5.7 DSS; drug sensitivity score (UT-SCC-24A [3]; shRNA: shScramble): 4.2 DSS; drug sensitivity score (BT-474 [4]; shRNA: shPPFIA1_1): 2.4 DSS; drug sensitivity score (BT-474 [4]; shRNA: shPPFIA1_2): 3.3 DSS; drug sensitivity score (BT-474 [4]; shRNA: shScramble): 1.3 DSS; drug sensitivity score (UT-SCC-24A [5]; shRNA: shPPFIA1_1): 10.2 DSS; drug sensitivity score (UT-SCC-24A [5]; shRNA: shPPFIA1_2): 12.8 DSS; drug sensitivity score (UT-SCC-24A [5]; shRNA: shScramble): 8.1 DSS
COc1cc([C@@H]2c3cc4c(cc3[C@@H](O[C@@H]3O[C@@H]5CO[C@@H](c6cccs6)O[C@H]5[C@H](O)[C@H]3O)[C@H]3COC(=O)[C@H]23)OCO4)cc(OC)c1O [Teniposide] | 3.1 | 9 | 5.8 | 5.3 | –
O=C1CCC(N2C(=O)c3ccccc3C2=O)C(=O)N1 (stereo not drawn) [Thalidomide] | 0 | 0 | 0 | 0 | –
S=P(N1CC1)(N1CC1)N1CC1 [Thio-TEPA] | 0.9 | 0.9 | 0 | 0 | –
Nc1nc2[nH]cnc2c(=S)[nH]1 [Thioguanine] | 5.1 | 10.2 | 0 | 0 | –
O=c1sn(-c2cccc3ccccc23)c(=O)n1Cc1ccccc1 [Tideglusib] | 0 | 0 | 0 | 0 | –
Cn1cncc1[C@@](N)(c1ccc(Cl)cc1)c1ccc2c(c1)c(-c1cccc(Cl)c1)cc(=O)n2C [Tipifarnib] | 3.5 | 4 | 5.9 | 0.8 | –
O=C1NC(=O)[C@@H](c2cn3c4c(cccc24)CCC3)[C@@H]1c1c[nH]c2ccccc12 [Tivantinib] | 4.8 | 3.8 | 1.7 | 0.5 | –
COc1cc2nccc(Oc3ccc(NC(=O)Nc4cc(C)on4)c(Cl)c3)c2cc1OC [Tivozanib] | 0 | 1.9 | 3.3 | 0 | –
C[C@@H]1CCN(C(=O)CC#N)C[C@@H]1N(C)c1ncnc2[nH]ccc12 [Tofacitinib] | 0 | 0 | 0.9 | 0.9 | –
CC[C@@]1(O)C(=O)OCc2c1cc1n(c2=O)Cc2cc3c(CN(C)C)c(O)ccc3nc2-1 [Topotecan] | 0 | 5.8 | 0.8 | 1.5 | –
CN(C)CCOc1ccc(/C(=C(/CCCl)c2ccccc2)c2ccccc2)cc1 [Toremifene] | 2.4 | 1.3 | 4.6 | 1.8 | –
CC(C)C[C@@H](C(=O)N[C@H](C(=O)OC1CCCC1)c1ccccc1)[C@H](O)C(=O)NO [Tosedostat] | 4.2 | 2 | 12.4 | 7.8 | –
Cc1cc(Nc2cc(N3CCN(C)CC3)nc(Sc3ccc(NC(=O)C4CC4)cc3)n2)n[nH]1 [Tozasertib] | 0 | 3 | 1.6 | 0.3 | –
CC1=C(/C=C/C(C)=C/C=C/C(C)=C/C(=O)O)C(C)(C)CCC1 [Tretinoin] | 0 | 0 | 0 | 0 | –
NC(=S)N/N=C/c1ncccc1N [Triapine] | 0 | 1.2 | 0 | 0 | –
O=C(CCCCCCC(=O)Nc1ccc([C@H]2O[C@@H](CSc3nc(-c4ccccc4)c(-c4ccccc4)o3)C[C@@H](c3ccc(CO)cc3)O2)cc1)NO [Tubacin] | 7.3 | 5 | 7.2 | 2.2 | –
CN1CCc2c(c3ccccc3n2Cc2ccc(C(=O)NO)cc2)C1 [Tubastatin A] | 0 | 1 | 0.1 | 0 | –
CN[C@@H]1C[C@H]2O[C@@](C)([C@@H]1OC)n1c3ccccc3c3c4c(c5c6ccccc6n2c5c31)C(=O)N[C@H]4O [UCN-01] | 17 | 21.4 | 16.6 | 12.2 | –
COC(=O)c1ccc2c(c1)[nH]c1ncnc(NCCCN3CCCCC3)c12 [UM729] | 0 | 0 | 0 | 0 | –
O=C(O)CSc1cc(NS(=O)(=O)c2ccc(Br)cc2)c2ccccc2c1O [UMI-77] | 3.2 | 10.8 | 8 | 18.7 | –
COc1cc2c(NC3CCN(C(C)C)CC3)nc(C3CCCCC3)nc2cc1OCCCN1CCCC1 [UNC0638] | 8.3 | 6.3 | 7 | 6.8 | –
